# Measurements reported in patent US20200022957A1, “KINASE AND UBIQUITIN LIGASE INHIBITORS AND USES THEREOF” (ALDA S.R.L., priority 2015, published 2020).
# Experiments:
# ATP7B R778L = ATP7B R778L translocation from ER to Golgi in HeLa cells (fluorescence microscopy); assay type: cell-based, human; settings: JNKi II 5 μM, 48 h, fraction of protein in Golgi by fluorescence microscopy, DMSO control 12
# Source text: Inventors next examined the effects of the MLK3 pathway inhibition on the proteostasis of other conformational disease mutants. Inventors transfected CFBE (and HeLa) cells with different conformational mutants (i.e., Sodium-chloride symporter [NCC, [MUT] mutant]; P-glycoprotein, [P-gp, [MUT] and DY490 mutants]; human Ether-a-go-go-Related Gene [hERG, [MUT] mutant]; Wilson's disease associated protein [ATP7B, [MUT] and [MUT] mutants]) and then treated cells with JNKi II and monitored these proteins by assessing changes in their glycosylation patterns (NCC, P-gp, hERG mutants) or in their intracellular movement from the ER to the Golgi complex (ATP7B mutants). […] CFBE or HeLa cells (in case of ATP7B) were transfected with constructs encoding the indicated mutant proteins and treated with JNKi II for 48 h.
# ATP7B H1069Q = assay: Morphological assay of ATP7B H1069Q exit from ER to Golgi in HeLa cells (fluorescence microscopy); assay type: cell-based, human; settings: ATP7B H1069Q; JNKi II 5 μM, 48 h; HeLa cells; fraction of protein in Golgi by fluorescence microscopy; DMSO control 32
# Method: Cells were transfected with ATP7B-WT-GFP or ATP7B-H1069Q-GFP, incubated overnight with 200 μM BCS and/or drugs. Fixed cells were further labeled for TGN46 to mark and visualize the Golgi area under a confocal microscope. Under low copper conditions ATP7B-WT traffics to the Golgi from the ER, while ATP7B-H1069Q is retained within the ER. If the drug treatments induce the rescue of trafficking from the ER to the Golgi, the ATP7B-H1069Q-GFP fluorescence in the Golgi area increases. This is measured by quantifying (in 10 different microscopy fields in 100 cells) the increased in fluorescence of ATP7BWT-GFP or ATP7BH1069Q-GFP in the Golgi area (marked by TGN46) and normalizing this value to total cell fluorescence
# CFBE or HeLa cells (in case of ATP7B) were transfected with constructs encoding the indicated mutant proteins and treated with JNKi II for 48 h.
# F508del-CFTR = F508del-CFTR proteostasis by western blotting (ER band B / Golgi-processed band C) in CFBE cells; assay type: cell-based, human; settings: 48 h, concentration series
# Method: Cells were washed three times in ice-cold Dulbecco's phosphate-buffered saline, and lysed in RIPA buffer (150 mM NaCl, 1% Triton X-100, 0.5% deoxycholic acid, 0.1% SDS, 20 mM Tris-HCl, pH 7.4), supplemented with protease inhibitor cocktail and phosphatase inhibitors. The lysates were clarified by centrifugation at 15000×g for 15 min, and the supernatants were resolved by SDS-PAGE. BCA Protein Assay kit (Pierce) was used to quantitate protein levels before loading. The western blots were decorated with appropriate antibodies and developed using ECL. The blots were then exposed to x-ray films and exposure time was varied to obtain optimal signal. The x-ray films were then scanned and the bands were quantitated using ImageJ gel-analysis tool. The protein concentration and the exposures used for quantitation of the blots were optimized to be in a linear range of detection.
# Inventors then turned to experimental validation of the role of the CORE genes in the regulation of F508del-CFTR proteostasis. Experiments were carried out using a characterised biochemical assay that detects both the amount of core-glycosylated CFTR trapped in the ER (band B with Western blotting) and the amount of CFTR fully glycosylated in the Golgi (most of which presumably resides at the PM; band C with Western blotting).
# ATP7BH1069Q = assay: Immunofluorescence assay for correction of ATP7B: cells with ATP7BH1069Q signal in the ER, HeLa cells; assay type: cell-based, human; settings: 24 h, SB202190 5 μM, VX-745 1 μM, SP600125 2 μM, Oxozeaenol 5 μM, 100 μM CuSO4 2 h
# Method: (A) HeLa cells were infected with Ad-ATP7BWT-GFP (Chesi et al., 2016) or Ad-ATP7BH1069Q-GFP, incubated overnight with 200 μM BCS, and incubated for an additional 2 h with 100 μM CuSO4. In response to Cu, ATP7BWT traffics from the Golgi to PM and vesicle, while ATP7BH1069Q are retained within the ER under high Cu conditions. Addition of p38 inhibitor SB202190 (5 μM), VX-745(1 μM), JNK inhibitor SP600125 (2 μM) and Oxozeaenol (5 μM) (as indicated in corresponding panels) to the cells 24 h corrects ATP7BH1069Q from the ER to PM and vesicles (arrows) (B) Cells were treated as in panel A. The percentage of the cells (average±SD, n=50 fields) with an ATP7B signal in the ER, were calculated.
# Cells were fixed with 4% paraformaldehyde in 0.2 M HEPES for 10 mins, permeabilized, labeled with primary and secondary antibodies, and examined with a ZEISS LSM 700 confocal microscope equipped with a 63×1.4 numerical aperture oil objective. The cells were scored based on the disappearance of ATP7B from the ER.
# hERG mutant (G601S) = assay: Proteostasis of hERG mutant in transfected CFBE cells (western blotting); assay type: cell-based, human
# Method: (§1) C. CFBE cells were treated with 5 μM oxozeaenol for 48 h, or with MLK3 siRNA, or with both, and the correction of the F508del-CFTR folding/trafficking defect was monitored by changes in the levels of band C. There was no additive effect observed with the combination of MLK3 downregulation and oxozeaenol treatment. The quantitated band C levels are expressed as mean±SD (n>3). D. CFBE cells were treated with 5 μM oxozeaenol for 24 h, and the activity of the JNK pathway was measured by western blotting for phospho c-jun levels and F508del-CFTR. […] E. CFBE cells were treated with flunarizine (at concentrations 6.25-50 μM) targeting the CAMKK2 pathway for 48 h and the effect on F508del-CFTR proteostasis measured by western blotting. Treatment with flunarizine increased the levels of band C of F508del-CFTR. […] F. CFBE cells transiently transfected with the P-glycoprotein mutant (P-gp DY490), the NCC mutant (R948X), or the hERG mutant (G601S) were treated with JNKi II for 24 h, and the effect of the drug on their proteostasis monitored by western blotting.
# (§2) The level of correction obtained with these inhibitors is higher than the effects of the corrector compounds from which the pathways were deduced (FIG. 3A), and similar to, or higher than, the effects of VX-809. […]
# [1] = test system: P-glycoprotein mutant (P-gp DY490); assay: Proteostasis of P-glycoprotein mutant in transfected CFBE cells (western blotting); assay type: cell-based
# Method: as §1, §2
# NCC mutant (R948X) = assay: Proteostasis of NCC mutant in transfected CFBE cells (western blotting); assay type: cell-based
# Method: as §1, §2
compound,measurement,setting,value
O=C1c2ccccc2-c2n[nH]c3cccc1c23 [JNKi II],Correction (% of wild type),ATP7B R778L,40 % of wild type
same,Correction (% of wild type),ATP7B H1069Q,80 % of wild type
same,levels of band B and band C of F508del-CFTR,F508del-CFTR,robust increases
same,percentage of the cells exhibiting ATP7BH1069Q in the ER,ATP7BH1069Q,reduced
same,"proteostasis of hERG mutant (G601S), levels of bands B and C",hERG mutant (G601S); JNKi II 24 h,enhanced degradation
same,Correction (% of wild type),"hERG mutant (G601S); table row 'hERG R948X', JNKi II 5 μM, 48 h, protein processed by the Golgi, DMSO control 44",24 % of wild type
same,trafficking of P-gp DY490 out of the ER (Golgi-associated band C),[1]; JNKi II 24 h,enhanced
same,Correction (% of wild type),"[1]; P-Glycoprotein DY490, JNKi II 5 μM, 48 h, protein processed by the Golgi, DMSO control 24",44 % of wild type
same,"proteostasis of NCC mutant (R948X), levels of bands B and C",NCC mutant (R948X); JNKi II 24 h,enhanced degradation
same,Correction (% of wild type),"NCC mutant (R948X); table row 'NCC G601S', JNKi II 5 μM, 48 h, protein processed by the Golgi, DMSO control 10",9 % of wild type
